Experimental data reported in US20060009432A1, “Use of neurosteroids to treat neuropathic pain” (priority 2004, published 2006).

Tests used:
Format in all cases: in vivo, rat
[1] = tested on: L5/L6 spinal nerve ligation (SNL) rats; test: Tactile allodynia (von Frey) in spinal nerve ligation model; conditions: summary, SNL animals
Description: (§1) (A) L5/L6 spinal nerve ligation (SNL) was performed as described by Kim and Chung (Pain, 50,355-363(1992)). Animals (mice or rats) were anesthetized with halothane. An incision was made lateral to the lumbar spine. The right L5 and L6 spinal nerves were isolated and tightly ligated distal to the dorsal root ganglion. The incision was closed, and animals were allowed to recover for 10 days. Sham-operated animals were prepared in an identical fashion except that the spinal nerves were not ligated.
The protocol was repeated until three changes in behavior were determined. The maximal cut-off size values used were 15 g for rats and 3.5 g for mice. The 50% paw withdrawal threshold was determined as 10Xf+kδ/10,000, where Xf=the value of the last von Frey filament used, k=Dixon value for the positive/negative pattern, and δ=the logarithmic difference between stimuli.
Tactile allodynia response was measured 15, 30, 45, 60, 90 and 120 minutes after i.p. administration of ganaxolone (at 1 mg/kg, 3 mg/kg, 6 mg/kg or 10 mg/kg). Table 2 provides the resulting measurement of tactile allodynia response in groups of five rats per dosage level.

[2] = tested on: chronic constriction injury (CCI) of the sciatic nerve, rats; test: Cold allodynia (acetone application) in chronic constriction injury model; conditions: for Average time to withdrawal (s.e.m.): CCI rats
Description: Unilateral sciatic nerve injury was produced under deep anesthesia with i.p injection of sodium pentobarbital (Mebumal, 60 mg/kg), as described by Bennett and Xie (Pain, 33, 87-107(1988)). The common sciatic nerve was exposed and freed for about 10 mm at mid-thigh level. Four ligatures (Ethicon, 4.0 plain gut) were tied loosely around the nerve with about 1-mm spacing creating a chronic constriction injury (CCl), and the incision was closed.
Brisk foot withdrawal in response to acetone application was measured based on the method described by Choi et al. The acetone bubble was gently brought in touch with the plantar surface around the center, and the acetone quickly spread over the central part of the plantar surface of the foot. Applications were made five times (once every 5 min) to each paw. The score for each application was recorded as follows: foot withdrawal was scored as positive (1) and lack of withdrawal as negative (O). The total score (0 to 5) was taken as index for cold sensitivity of the foot […]. This approximates pain from a non-noxious stimulus, i.e. allodynia.
Cold allodynia response was measured 15, 30, 45, 60, 90 and 120 minutes after i.p. administration of ganaxolone (at 1 mg/kg, 3 mg/kg or 10 mg/kg) as well as prior to administration of the neurosteroid and prior to infliction of the neural injury. Table 1 provides the resulting measurement of cold allodynia response in groups of six rats per dosage level. The abbreviation “s.e.m.” means standard error mean.

SNL rats = test: Thermal withdrawal (Hargreaves) in spinal nerve ligation model
Description: as §1
(B) The method of Hargreaves et al. (Pain, 32, 77-88 (1988)) was used to measure the thermal withdrawal latency in SNL rats. Animals were acclimated within Plexiglas enclosures on a clear glass plate maintained at 30° C. A radiant heat source (high-intensity projector lamp) was focused onto the plantar surface of the paw. When the paw was withdrawn, a motion detector halted the stimulus and a timer. A maximal cut-off of 40 sec for rats and 30 sec for mice was used to prevent tissue damage. Differences in responses between groups were tested by using the standard ANOVA statistical test followed by post hoc testing with Student's t test with Bonferroni's correction. Significance was defined as P<0.05.
Thermal withdrawal response was measured 15, 30, 45, 60, 90 and 120 minutes after i.p. administration of ganaxolone (at 1 mg/kg, 3 mg/kg, 6 mg/kg or 10 mg/kg). Table 3 provides the resulting measurement of thermal withdrawal in groups of five rats per dosage level.

SMILES: CC(=O)[C@H]1CC[C@H]2[C@@H]3CC[C@H]4C[C@](C)(O)CC[C@]4(C)[C@H]3CC[C@]12C [ganaxolone, 3α-hydroxy-3β-methyl-5α-pregnan-20-one]
- Effect on % Activity [1]: increases the % Activity
- Average time to withdrawal (s.e.m.) ([2]; 1 mg/kg i.p., 15 min after administration): 7.40 (1.02)
- Average time to withdrawal (s.e.m.) ([2]; 1 mg/kg i.p., 30 min after administration): 6.12 (1.72)
- Average time to withdrawal (s.e.m.) ([2]; 1 mg/kg i.p., 45 min after administration): 5.07 (1.14)
- Average time to withdrawal (s.e.m.) ([2]; 1 mg/kg i.p., 60 min after administration): 2.59 (0.47)
- Average time to withdrawal (s.e.m.) ([2]; 1 mg/kg i.p., 90 min after administration): 3.66 (0.47)
- Average time to withdrawal (s.e.m.) ([2]; 1 mg/kg i.p., 120 min after administration): 3.16 (0.26)
- Average time to withdrawal (s.e.m.) ([2]; 3 mg/kg i.p., 15 min after administration): 6.77
- Average time to withdrawal (s.e.m.) ([2]; 3 mg/kg i.p., 30 min after administration): 13.03
- Average time to withdrawal (s.e.m.) ([2]; 3 mg/kg i.p., 45 min after administration): 11.12
- Average time to withdrawal (s.e.m.) ([2]; 3 mg/kg i.p., 60 min after administration): 11.69
- Average time to withdrawal (s.e.m.) ([2]; 3 mg/kg i.p., 90 min after administration): 10.26
- Average time to withdrawal (s.e.m.) ([2]; 3 mg/kg i.p., 120 min after administration): 10.30
- Average time to withdrawal (s.e.m.) ([2]; 10 mg/kg i.p., 15 min after administration): 13.86
- Average time to withdrawal (s.e.m.) ([2]; 10 mg/kg i.p., 30 min after administration): 15.35
- Average time to withdrawal (s.e.m.) ([2]; 10 mg/kg i.p., 45 min after administration): 13.34
- Average time to withdrawal (s.e.m.) ([2]; 10 mg/kg i.p., 60 min after administration): 10.38
- Average time to withdrawal (s.e.m.) ([2]; 10 mg/kg i.p., 90 min after administration): 8.59
- Average time to withdrawal (s.e.m.) ([2]; 10 mg/kg i.p., 120 min after administration): 8.87
- Effect on average time to withdrawal ([2]; summary of Table 1, CCI rats): increases the average time to withdrawal
- % Activity ± s.e.m. (thermal withdrawal) (SNL rats; 1 mg/kg i.p., 15 min): 24.59 ± 14.93%
- % Activity ± s.e.m. (thermal withdrawal) (SNL rats; 1 mg/kg i.p., 30 min): 27.99 ± 17.71%
- % Activity ± s.e.m. (thermal withdrawal) (SNL rats; 1 mg/kg i.p., 45 min): 3.98 ± 2.63%
- % Activity ± s.e.m. (thermal withdrawal) (SNL rats; 1 mg/kg i.p., 60 min): 12.62 ± 8.69%
- % Activity ± s.e.m. (thermal withdrawal) (SNL rats; 1 mg/kg i.p., 90 min): 17.40 ± 8.65%
- % Activity ± s.e.m. (thermal withdrawal) (SNL rats; 1 mg/kg i.p., 120 min): 12.13 ± 9.25%
- % Activity ± s.e.m. (thermal withdrawal) (SNL rats; 3 mg/kg i.p., 15 min): 37.15 ± 18.52%
- % Activity ± s.e.m. (thermal withdrawal) (SNL rats; 3 mg/kg i.p., 30 min): 48.03 ± 22.45%
- % Activity ± s.e.m. (thermal withdrawal) (SNL rats; 3 mg/kg i.p., 45 min): 19.84 ± 12.97%
- % Activity ± s.e.m. (thermal withdrawal) (SNL rats; 3 mg/kg i.p., 60 min): 14.25 ± 10.87%
- % Activity ± s.e.m. (thermal withdrawal) (SNL rats; 3 mg/kg i.p., 90 min): 4.18 ± 4.18%
- % Activity ± s.e.m. (thermal withdrawal) (SNL rats; 3 mg/kg i.p., 120 min): 16.57 ± 11.76%
- % Activity ± s.e.m. (thermal withdrawal) (SNL rats; 6 mg/kg i.p., 15 min): 79.03 ± 10.50%
- % Activity ± s.e.m. (thermal withdrawal) (SNL rats; 6 mg/kg i.p., 30 min): 70.78 ± 11.53%
- % Activity ± s.e.m. (thermal withdrawal) (SNL rats; 6 mg/kg i.p., 45 min): 43.72 ± 10.03%
- % Activity ± s.e.m. (thermal withdrawal) (SNL rats; 6 mg/kg i.p., 60 min): 60.94 ± 10.27%
- % Activity ± s.e.m. (thermal withdrawal) (SNL rats; 6 mg/kg i.p., 90 min): 42.83 ± 10.41%
- % Activity ± s.e.m. (thermal withdrawal) (SNL rats; 6 mg/kg i.p., 120 min): 10.88 ± 6.34%
- % Activity ± s.e.m. (thermal withdrawal) (SNL rats; 10 mg/kg i.p., 15 min): 70.07 ± 18.30%
- % Activity ± s.e.m. (thermal withdrawal) (SNL rats; 10 mg/kg i.p., 30 min): 46.91 ± 14.25%
- % Activity ± s.e.m. (thermal withdrawal) (SNL rats; 10 mg/kg i.p., 45 min): 47.36 ± 12.97%
- % Activity ± s.e.m. (thermal withdrawal) (SNL rats; 10 mg/kg i.p., 60 min): 41.45 ± 10.90%
- % Activity ± s.e.m. (thermal withdrawal) (SNL rats; 10 mg/kg i.p., 90 min): 33.58 ± 7.53%
- % Activity ± s.e.m. (thermal withdrawal) (SNL rats; 10 mg/kg i.p., 120 min): 23.87 ± 4.35%
- Sedation (SNL rats; 10 mg/kg i.p., thermal withdrawal test): sedated four of the five rats for about one hour
